The subject of experiment [1] is C2C12-IDBRE-luciferase cells. Briefly: BMP activity, C2C12-IDBRE-luciferase reporter assay. It counts as cell-based. As to conditions: 24 hours after treatment, 100% activity = luminescence 200% of DMSO control, read-out: Qualified absolute AC50. The procedure: C2C12-IDBRE-luciferase reporter line was established by infecting C2C12 cells with lentiviruses with IDBRE-luciferase pLenti6 plasmid with Blasticidin resistance.
C2C12-IDBRE-luciferase cells were plated to 384-well plate at 5000 cells in 36 μl DMEM plus 10% FBS at day 0. Cells were treated with different doses of compounds at day 1. Bright-Glo™ Luciferase Assay (Promega, catalog # E2650) was performed with EnVision plate reader (PerkinElmer) 24 hours after treatment at day 2. 0% activity is equal to DMSO control. 100% activity means Luminescence reading for a compound is 200% of luminescence reading of DMSO control. The formula to calculate the activity is: 100*(Luminescence_compound−Luminescence_DMSO)/Luminescence_DMSO

The test system of experiment [2] is 293T-NFAT-luciferase cells. Briefly: Calcineurin inhibition, 293T-NFAT-luciferase reporter assay. It counts as cell-based. The following applies: 293T-NFAT-luciferase cells co-treated with 100 ng/ml PMA and 1 μM Ionomycin, 24 hours after treatment; read-out: NFAT-luc IC50. The procedure: NFAT-luciferase reporter line was established by transfecting NFAT-luciferase/pTranslucent (Panomics #LR0050) and Puromycin-resistance plasmid together into 293T cells.
293T-NFAT-luciferase cells were plated to 384-well plate at 10000 cells in 32 μl DMEM plus 10% FBS at day 0. Cells were treated with different doses of compounds at day 1. Half an hour after compound treatment, 293T-NFAT-luciferase cells were co-treated with 100 ng/ml PMA (PHORBOL 12-MYRISTATE 13-ACETAT, Sigma, catalog #P8139-1MG) and 1 μM Ionomycin (Sigma, catalog #10634-1MG). Bright-Glo™ Luciferase Assay (Promega, catalog # E2650) was performed with EnVision plate reader (PerkinElmer) 24 hours after treatment at day 2.

Take `CC[C@H]1C(=O)C[C@H](O)[C@@H](C)[C@@H](/C(C)=C/[C@@H]2CC[C@@H](O)[C@H](OC)C2)OC(=O)[C@@H]2CCCCN2C(=O)C(=O)[C@]2(O)O[C@H]([C@@H](OC)C[C@@H](C)C[C@@]3(C)O[C@H]13)[C@@H](OC)C[C@H]2C` [Compound B]: in experiment [1], the AC50 was 24 nM. Moreover, the concentration for half-maximal inhibition (IC50) in experiment [2] is more than 50000 nM.
On the same counts, the results for `CC[C@H]1C(=O)C[C@H](O)[C@@H](C)[C@@H](/C(C)=C/[C@@H]2CC[C@@H](O)[C@H](OC)C2)OC(=O)[C@@H]2CCCCN2C(=O)C(=O)[C@]2(O)O[C@H]([C@@H](OC)C[C@@H](C)C[C@]3(C)O[C@@H]13)[C@@H](OC)C[C@H]2C` [Compound C] are 201 nM and 33 nM.
On the same counts, the results for `CO[C@H]1C[C@@H](C)C/C(C)=C/[C@@H](C/C=C/C2(O)COC2)C(=O)C[C@H](O)[C@@H](C)[C@@H](/C(C)=C/[C@@H]2CC[C@@H](O)[C@H](OC)C2)OC(=O)[C@@H]2CCCCN2C(=O)C(=O)[C@]2(O)O[C@H]1[C@@H](OC)C[C@H]2C` [Compound A] are 91 nM and more than 50000 nM.
Consider `C=CC[C@@H]1/C=C(\C)C[C@H](C)C[C@H](OC)[C@H]2O[C@@](O)(C(=O)C(=O)N3CCCC[C@H]3C(=O)O[C@H](/C(C)=C/[C@@H]3CC[C@@H](O)[C@H](OC)C3)[C@H](C)[C@@H](O)CC1=O)[C@H](C)C[C@@H]2OC` [FK-506, reference compound], for which the concentration at half-maximal activity (AC50) in experiment [1] amounted to 24 nM. Further, the IC50 in experiment [2] came out at 0.05 nM.

These data come from US10259827B2, “BMP potentiators” (NOVARTIS AG, priority 2016, dated 2019).
